Where two headings read alike, the source gives them in different places. Where no end group is shown, it is not given here.
How the values were obtained:
influenza = assay: Unpublished studies of NP-Q11 flu epitope; assay type: in vivo
RAW264.7 macrophages = assay: alamarBlue cell viability assay; conditions: 0.2-200 μM, compared to untreated cells
DC2.4 dendritic cells = assay: alamarBlue cell viability assay; conditions: 0.2-200 μM, compared to untreated cells
mice [1] = assay: Immunization with four (KEYA)nQ11 lengths, anti-immunizing peptide IgG titers; assay type: in vivo
[2] = test system: lymphocytes from draining lymph nodes; assay: ELISpot on draining lymph nodes restimulated with immunizing peptide; assay type: in vivo, mice; conditions: for induction of antibody and T cell responses: summary of antibody and ELISpot results
splenocytes = assay: Flow cytometry of splenocytes after s.c. immunization; assay type: in vivo, mice; conditions: spleens 5 days after last boost; for CD4+CD25hi T cells (Tregs): versus PBS
Text: FIG. 8. […] (a) Cartoon of s.c. immunization schedule with either (KEYA)20Q11 (red), Q11 (blue), PBS (gray). Spleens were harvested at week 6. Percent of (b) CD3+ cells and (c) CD3+IL4+ cells from total number of live cells. Percent of (d) CD4+ cells and (e) CD4+IL4+ cells from total number of CD3+ cells. […] Mean+/−s.e.m. shown. n=4-5 experimental replicates per group.
Mice were immunized and boosted twice with (KEYA)20Q11, Q11, or PBS ([…]) and their spleens were harvested 5 days after the last boost. After the splenocytes were stimulated overnight with their immunizing peptide, cells were stained and taken to flow cytometry for analysis.

[3] = test system: Lymphocyte populations purified from spleens; assay: ELISpot after immunization with (KEYA)20Q11 co-assembled with PADREQ11; assay type: in vivo, mice; conditions: co-assembled with 2.5% PADREQ11; 3.5 weeks
Description: FIG. 6. (KEYA)20Q11 can enhance the T cell stimulatory capabilities of other T and B cell epitopes. (a) ELISpot from mice immunized and boosted with nanofiber formulations containing 2.5% PADREQ11 and either 97.5% (dark red), 2.5% (light red), or 0% (gray) (KEYA)20Q11 co-assembled with Q11 into a 2 mM nanofiber. […] (b) ELISpot from mice immunized and boosted with nanofiber formulations containing 50% NPQ11 and either 50% (red), or 0% (gray) (KEYA)20Q11 co-assembled with Q11 into a 2 mM nanofiber. […] (c) Cartoon of immunization schedule for figures (d) and (e). All groups contained 50% TNFQ11 (d) anti-TNF IgG antibody titers for groups described in (c). (e) anti-TNF IgG1 and IgG2c antibodies. *p<0.05, **p<0.01, ***p<0.001 by 2way ANOVA with Sidak's post hoc test.
Enhancement of co-assembled T and B cell epitopes. Having characterized (KEYA)20Q11 and the subsequent humoral and cellular responses, the inventors tested the hypothesis that co-assembling (KEYA)20Q11 with other epitopes may enhance the response to the co-assembled epitope. Previous work has established a method for ensuring co-assembly of multiple epitopes onto a single nanofiber^38. Highlighting an advantage of the Q11 system, we were able to systematically add and titrate co-assembled (KEYA)20Q11 with a variety of T and B cell epitopes to investigate the resulting magnitude of immune responses. […]

[4] = test system: purified lymphocyte populations from spleens; assay: ELISpot after immunization with (KEYA)20Q11 co-assembled with NP-Q11; assay type: in vivo, mice; conditions: week 3.5
DC2.4 cells = assay: Confocal microscopy of nanofiber internalization; assay type: cell-based; conditions: after 24 hours
mice [5] = assay: Immunization with Q11 nanofibers containing 1-50% (KEYA)20Q11, anti-p(KEYA)20 IgG titers; assay type: in vivo; conditions: 2 mM total formulation with Q11, boosted every 2.5 weeks
Description: FIG. 5. Titration of (KEYA)20 component modulates the strength of engagement with APCs and humoral immunity while maintaining a Type 2 T cell phenotype. Uptake of TAMRA labeled (KEYA)20Q11 in (a) DC2.4 dendritic cells, RAW264.7 macrophages, and B-LCL human B cells stimulated for 0.1, 0.5, 2, 24, and 72 (B cells only) hours measured by flow cytometry. 100% refers to the molar percent of (KEYA)20 incorporated into a 2 mM Q11 nanofiber. 10% indicates 10% (KEYA)20Q11 and 90% Q11, while 0% indicates the entire nanofiber contains only Q11. All groups included 2.5% fluorescent TAMRA-Q11. (b) Representative confocal images of fluorescent Q11 and (KEYA)20Q11 stimulated DC2.4 cells. Nanofibers seen in red, cell nuclei in blue, and cell borders in green. […] (c) Populations of mouse APCs containing nanofibers collected 12 hours after i.p. injection. (d) Cartoon indicating the boosting schedule and graph of the anti-p(KEYA)20 IgG antibody titers. 50% (KEYA)20 is represented darkest red, 33% (KEYA)20 in the second darkest, 10% (KEYA)20 in the second lightest, and 1% (KEYA)20 in the lightest color. Week 16 IgG1 and IgG2c isotypes are shown in (e), (KEYA)20 only produces an IgG1 response when at 33% and 50%. […]

mice [6] = assay: Multiplex cytokine analysis of lavage fluid after i.p. injection; assay type: in vivo; conditions: for IFNγ in lavage fluid / IL1β in lavage fluid / IL6 in lavage fluid: 2-hour i.p. stimulation, versus PBS
Text: Immune activation is not mediated by inflammation.

[7] = Nanofiber formation (AFM, ThT binding); assay type: physicochemical; conditions: physiological conditions
[8] = mouse, in vivo
Description: Mice injected with TAMRA labeled Q11 on the left flank and (KEYA)20Q11 on the right were (a) measured with IVIS immediately after injection and daily for 7 days. (b) The number of days the fluorescence was detected was graphed to compare the persistence between the two groups. (c) The radiant efficiency was calculated from the images collected and graphed on a log 10 scale. (d) Total amount of remaining nanofiber and (e) overlap between nanofibers and CD45+ cells calculated from confocal images. (f) Representative confocal images from injection site skin collected on Day 7.
Persistence at the injection site. […] Uptake by APCs occurs primarily at the s.c. injection site, so we used IVIS to image mice injected with fluorescently labeled nanofibers over the course of a week. Mice were injected with Q11 on their left flank and (KEYA)20Q11 on their right (FIG. 9a) and images were taken daily to measure the retention of each nanomaterial at the injection site. […] Skin sections were taken of the injection site on day 7 and stained with CD45, a common lymphocyte marker, and DAPI, a common cell nuclei stain (FIG. 9d-f).

mice [9] = conditions: mouse, in vivo
Description: (§1) (a) Footpad swelling measured 3, 6, 12, 24, 48, and 72 hours following a single footpad injection of (KEYA)20Q11 (red), Alum (dark gray), or PBS (light gray) and subtracted from baseline measurements. […] Mean+/−s.e.m. shown. n=3-5 experimental replicates per group.
(§2) Mice were injected sub-dermally on the back-right footpad with (KEYA)20Q11, Alum, or PBS to determine extent of inflammation caused by the nanomaterial (FIG. 7a). […] Footpad swelling was measured over the course of 72 hours and normalized to a pre-injection footpad thickness measurement.

Dendritic cells = assay: In vivo APC uptake of fluorescent nanofibers after i.p. injection; parameters: species or system mice; conditions: 2 hours
[10] = parameters: species or system mice; conditions: mouse, in vivo; for persistence at the injection site (average days fluorescence detected): sc
Text: Persistence at the injection site.

local macrophages = assay: In vivo APC uptake of fluorescent nanofibers after i.p. injection; parameters: species or system mice; conditions: 2 hours
[11] = cited from earlier work
mice [12] = assay: Footpad swelling after footpad injection; conditions: single footpad injection, measured over 72 hours, compared to PBS
Description: as §1, §2

[13] = 12-hour i.p. stimulation, compared to PBS

NH2-QVYSLIRPNENPAHK SGSG QQKFQFQFEQQ-Am (H-QVYSLIRPNENPAHKSGSGQQKFQFQFEQQ-NH2; also: linked to (KEYA)20Q11) [NP-Q11]
protection against an influenza challenge (influenza; unpublished studies): does not raise strong enough responses to be protective | T cell response phenotype (influenza; unpublished work): IFNγ biased T cell responses

C[S+](C)[O-] [DMSO]
cell viability (health of the macrophages) (RAW264.7 macrophages): dose dependent cytotoxic response | cell viability (health of the dendritic cells) (DC2.4 dendritic cells): dose dependent cytotoxic response

XQQKFQFQFEQQ (not fully specified; X: randomised place (mixture)) [(KEYA)1Q11]
(KEYA)n-specific IgG antibodies (mice [1]; boosted every 2.5 weeks, 14-week experiment): no humoral response | induction of antibody and T cell responses [2]: ineffective at inducing immune responses

XXXXXXXXXXXXXXXXXXXXQQKFQFQFEQQ [(KEYA)20Q11]
CD4+ T cells (splenocytes): slight reduction | general proliferation of T cells (total percent of CD3+ cells) (splenocytes): no effect | percent of IL4+ CD3+ cells (splenocytes): significantly higher percent | percent of IL4+ CD4+ T cells (splenocytes): increase | CD4+CD25hi T cells (Tregs) (splenocytes): increases the production of Tregs | Type 2 T cell bias upon re-stimulation with p(KEYA)20 [3]: statistically higher production of IL4 than IFNγ | T cell response to pNP ([4]; 50% (KEYA)20Q11 co-assembled with 50% NP-Q11 versus 0%): significantly enhanced | response to re-stimulation with p(KEYA)20 ([4]; co-assembled with 50% NP-Q11): strong response | internalization seen by confocal microscopy (DC2.4 cells): abundantly present | Th2 response indicated by IgG1 versus IgG2c titers (mice [1]; week 14): strong Th2 response | molar concentration in nanofiber necessary to stimulate a (KEYA)20-specific IgG humoral response (mice [5]): ≥ 33% | IFNγ in lavage fluid (mice [6]): indistinguishable from PBS | IL1β in lavage fluid (mice [6]): indistinguishable from PBS | IL6 in lavage fluid (mice [6]): indistinguishable from PBS | IL4 in lavage fluid (mice [6]; [13]): significantly elevated | IL5 in lavage fluid (mice [6]; [13]): significantly elevated | nanofiber formation [7]: self-assembles into nanofibers | capsule formation around the injected material [8]: little to no capsule formation | footpad swelling (mice [9]): no distinguishable swelling | dendritic cell population with nanofiber uptake (Dendritic cells): about 60% | induction of antibody and T cell responses [2]: strong antibody and T cell responses | IL4 production by T cells (ELISpot) ([2]; week 14, compared with (KEYA)1Q11 or (KEYA)5Q11): significantly higher IL4 production | amount retained at the site by radiant efficiency [10]: greater amounts | persists at the injection site and maintains immunogenicity [10]: up to 7 days | persistence at the injection site (average days fluorescence detected) [10]: 5 days | local macrophages with nanofiber uptake (local macrophages): ~100%

SSQNSSDKPVAHVVANHQVE-SGSG-QQKFQFQFEQQ (SSQNSSDKPVAHVVANHQVESGSGQQKFQFQFEQQ; Synthetic- TNF-Q11 TNF4-23 linked to (KEYA)20Q11)
effect on inflammation ([11]; when a strong B cell response is raised): effectively reduce inflammation

Alum
footpad swelling (mice [12]): significantly larger swelling

QQKFQFQFEQQ (Synthetic- KEYA Q11) [unmodified nanofiber, reference compound]
CD4+CD25hi T cells (Tregs) (splenocytes): significantly increases | internalization seen by confocal microscopy (DC2.4 cells): minimally internalized | IFNγ in lavage fluid (mice [6]): indistinguishable from PBS | IL1β in lavage fluid (mice [6]): indistinguishable from PBS | IL6 in lavage fluid (mice [6]): indistinguishable from PBS | inflammation after injection ([11]; in vivo): not inflammatory | humoral response ([11]; previous reports): no humoral response | dendritic cell population with nanofiber uptake (Dendritic cells): about 25% | persistence at the injection site (average days fluorescence detected) [10]: 3 days | local macrophages with nanofiber uptake (local macrophages): ~100%

— patent publication US20220194989A1, “SUPRAMOLECULAR POLYPEPTIDE COMPOSITIONS AND METHODS OF MAKING AND USING THE SAME” (Duke University, priority 2019, published 2022)
